# In publication PMC2719696, “Kinetics and Cellular Site of Glycolipid Loading Control the Outcome of Natural Killer T Cell Activation” (Immunity, 2009):
# Molecular target: T1, mCD1d (Mus musculus, UniProt P11609)
# T1 construct: host or cells: JAWS II (C57BL/6.Trp53-/- derived dendritic cell line)
# T1 sequence (P11609 22-336): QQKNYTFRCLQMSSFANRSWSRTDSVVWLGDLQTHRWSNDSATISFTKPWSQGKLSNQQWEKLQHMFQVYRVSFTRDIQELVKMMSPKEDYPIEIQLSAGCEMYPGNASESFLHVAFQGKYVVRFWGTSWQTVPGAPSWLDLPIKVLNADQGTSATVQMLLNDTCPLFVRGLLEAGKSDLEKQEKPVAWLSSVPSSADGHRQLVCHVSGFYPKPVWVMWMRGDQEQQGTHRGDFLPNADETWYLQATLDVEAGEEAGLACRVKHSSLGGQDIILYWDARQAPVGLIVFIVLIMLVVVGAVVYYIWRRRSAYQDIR
# T1 sequence (P01887 21-119 partner): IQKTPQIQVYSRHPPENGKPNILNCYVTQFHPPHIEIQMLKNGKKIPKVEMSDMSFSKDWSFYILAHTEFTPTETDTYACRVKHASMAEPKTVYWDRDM
# Assay: mAb L363 surface staining of JAWS II cells by flow cytometry (kinetics and pulse-chase)
# Format: cell-based
# Conditions: for L363 surface staining over time: JAWS II cells, 250 nM glycolipid, 0.5, 4 and 18 hr; for formation of mCD1d-αGalCer surface complexes in pulse-chase analysis: JAWS II cells pulsed 500 nM for 1.5 hr, 8 hr chase
# Protocol: We studied this possibility directly by using a monoclonal antibody (L363) that specifically recognizes complexes of αGalCer bound to mCD1d ([Yu et al., 2007]). Mouse splenocytes were cultured with either αGalCer-C26:0 or representative Th2 cell-type cytokine-biasing analogs, and L363 staining was assessed on various cell types (Figure 3A). […] This was investigated further with more detailed kinetic studies in which immortalized mouse DC line JAWS II was cultured with each glycolipid and assessed for L363 surface staining at 0.5, 4, and 18 hr (Figure 3B). There was a striking correlation between rapid kinetics of glycolipid association with mCD1d and the ability to induce a Th2 cell-type cytokine response. […] In contrast, most analogs inducing Th2 cell-type cytokine responses gave strong L363 staining by 0.5 hr, which increased modestly or not at all with longer incubation. […] Experiments using responses of iNKT cells to analyze the kinetics of cell-surface appearance gave analogous results (Figure S5).
# Figure 3 Direct Analysis of Presentation of αGalCer Analogs with Complex-Specific mAb Staining (A) Mouse splenocytes cultured with either vehicle only (0.02% DMSO) or with the indicated αGalCer analogs (100 nM) were harvested after 1 hr or 19 hr of incubation and stained with mAb L363 or anti-CD1d mAb 1B1 and with mAbs specific for CD11c, CD19, and F4/80 (Figure S4). Filled histograms show L363 staining of cells cultured with vehicle only, and open histograms show cells cultured with indicated glycolipids. At the left, the total CD1d staining with mAb 1B1 (open histograms) compared to isotype control mAb (filled histograms) are shown on cells cultured for 19 hr with DMSO only. (B) JAWS II cells were incubated with glycolipids (250 nM) for various times ranging from 0.5–18 hr as indicated, stained with mAb L363, and analyzed by flow cytometry. Dashed line histograms show L363 staining of cells incubated with medium only, and bold histograms show L363 staining of cells incubated with αGalCer analogs. (C) JAWS II cells were pulsed with indicated αGalCer analogs (500 nM) for 1.5 hr, washed extensively, and recultured at 37°C for various chase times. Upon harvesting, cells were placed on ice and subsequently stained with mAb L363 for flow cytometry analysis. Histogram overlays show L363 staining of cells pulsed initially with vehicle only (DMSO, dashed histograms) or with αGalCer analog (bold histograms). […] All results shown (A, B, and C) were representative of at least two independent experiments.
# Recombinant CD1d proteins were produced and assembled into tetramers for staining as previously described ([Forestier et al., 2007]). To obtain optimally loaded tetramers for iNKT cell staining, we loaded mCD1d with αGalCer-C26:0 and -C24:0 in the presence of 0.05% Triton X-100 (Sigma-Aldrich) and loaded mCD1d with other glycolipids without Triton X-100. For loading of hCD1d, 0.05% Triton X-100 was included with αGalCer-C26:0, -C24:0, and -C20:4, whereas other glycolipids were loaded without Triton X-100. For surface staining of αGalCer/mCD1d complexes, murine splenocytes or JAWS II cells were incubated with 250 nM glycolipids for various times and then 0.2 μg/ml mAb L363 (Alexa Fluor 647 or biotin conjugated) was added directly to the culture for an additional 30 min at RT. In some experiments, additional fluorochrome-conjugated antibodies specific for leukocyte subpopulations were added for the last 15 min of incubation. All samples were analyzed with the FACSCalibur flow cytometer (BD Biosciences).
SMILES,L363 surface staining over time,formation of mCD1d-αGalCer surface complexes in pulse-chase analysis
CCCCCCCCCCCCCCCCCCCCCCCC(=O)NC(COC1OC(CO)C(O)C(O)C1O)C(O)C(O)CCCCC (stereo not drawn) [OCH],very weak L363 reactivity,
CCCCCCCCCCCCCCC(O)C(O)C(COC1OC(CO)C(O)C(O)C1O)NC(=O)CCCCCCCCC (stereo not drawn) [αGalCer-C10:0],,the complexes formed rapidly and began declining immediately during the chase period
CCCCCC=CCC=CCCCCCCCCCC(=O)NC(COC1OC(CO)C(O)C(O)C1O)C(O)C(O)CCCCCCCCCCCCCC (stereo not drawn) [αGalCer-C20:2],,the complexes formed rapidly and began declining immediately during the chase period
CCCCCCCCCCCCCCCCCCCCCCCC(=O)NC(COC1OC(CO)C(O)C(O)C1O)C(O)C(O)CCCCCCCCCCCCCC (stereo not drawn) [αGalCer-C24:0],strong L363 staining was detected only at 18 hr,
"CCCCCCCCCCCCCCCCCCCCCCCCCC(=O)NC(COC1OC(CO)C(O)C(O)C1O)C(O)C(O)CCCCCCCCCCCCCC (stereo not drawn) [αGalCer-C26:0, reference compound]",strong L363 staining was detected only at 18 hr,formed slowly
